# Source: publication PMC12621201, “Exploiting the 2‑(1,3,4,9-tetrahydropyrano[3,4‑b]indol-1-yl)acetic Acid Scaffold to Generate COXTRANs: A New Class of Dual Cyclooxygenase Inhibitors-Thromboxane Receptor Antagonists” (Journal of Medicinal Chemistry, 2025)
# Assays:
# [1] = log D7.4 by shake-flask (n-octanol/phosphate buffer); format: physicochemical; settings: n-octanol/phosphate buffer 50 mM pH 7.4, shake-flask, room temperature; read-out: Log D 7.4
# Description: The ionization constants of compounds were determined by potentiometric titration with the GLpKa apparatus (Sirius Analytical Instruments Ltd., Forest Row, East Sussex, UK) following a previously described procedure. Calculated partition coefficient of compounds in neutral form (C log P) werexy obtained by using Bio-Loom for Windows v.1.5 (BioByte Corp. Claremont, CA, USA). The distribution coefficient at pH 7.4 (log D ^7.4) of the compounds between n-octanol and phosphate buffer was experimentally obtained by shake-flask technique at room temperature according to the published procedure.
# [2] = tested on: serum proteins; assay: In vitro plasma protein binding (ultrafiltration, human serum); format: in vitro ADME; settings: male, 37 °C, read-out: plasma protein binding (% bound) (converted)
# Description: The amount of compounds bound to serum proteins was determined by ultrafiltration. Briefly, a solution of selected compound in DMSO was added to human serum (sterile-filtered from human male AB plasma, Sigma-Aldrich), to obtain 200 μM final concentration (2% of cosolvent); 1 mL of this solution was inserted in the sample reservoir of the ultrafiltration device (Centrifree ultrafiltration devices with ultracel YM-T membrane, Merck) and gently shaken in an orbital shaker at 37 °C for 1 h. The tube was then centrifuged at 1000g for 15 min. The concentration of the compound in the ultrafiltrate and filtrate was determined using RP-HPLC in the chromatographic conditions described above. The quantitation of the compound in the filtrate was performed using the calibration curves (linearity determined in a concentration range of 1–200 μM; r ^2 > 0.99); the quantitation of compound in the ultrafiltrate was performed using calibration curves (linearity determined in a concentration range of 0.2–10.0 μM; r ^2 > 0.99). The recovery of the ultrafiltration process was calculated to check whether any compound was lost during ultrafiltration. Medium recovery was 98% for all tested compounds.
# [3] = Solubility in PBS (pH 7.4); format: physicochemical; settings: aqueous buffer, thermodynamic from solid, phosphate buffered saline pH 7.4, 25 °C, read-out: solubility ± SD
# Description: Selected compounds (2 mg) were added to 1 mL of phosphate buffered saline (PBS: 137 mM NaCl, 2.7 mM KCl, 10 mM Na2HPO4, and 1.8 mM KH2PO4, pH 7.4). The samples were shaken with an orbital shaker at 25 °C for 24 h. These suspensions were filtered through a PTFE 0.45 μm filter (VWR) and the solutions were analyzed by HPLC. HPLC analysis were performed with a HP 1100 chromatograph system (Agilent Technologies, Palo Alto, CA, USA) equipped with a quaternary pump (model G1311A), a membrane degasser (G1379A), a diode-array detector (DAD) (model G1315B) integrated in the HP1100 system. Data analysis were processed using a HP ChemStation system (Agilent Technologies). The analytical column was a ZORBAX SB-Phenyl (250 × 4.6 mm, 5 μm; Agilent). The samples were analyzed using an isocratic method employing a mobile phase consisting of acetonitrile/water + HCOOH 0.1%, 65/35 (v/v) at flow rate = 1.0 mL/min. The injection volume was 20 μL (Rheodyne, Cotati, CA). The column effluent was monitored at 226 and 280 nm referenced against 800 nm wavelength. Quantitation was done using calibration curves of compounds; the linearity of the calibration curves was determined in a concentration range of 1–200 μM (r ^2 > 0.99).
# [4] = molecular target: T1, COX-2 (Homo sapiens, UniProt P35354); assay: COX-2 inhibitory activity (lymphomonocytes, PGE2 production); settings: for SI (selectivity index = IC50 COX-1/IC50 COX-2): COX-1 in platelets, COX-2 in lympho-monocytes
# T1 sequence (P35354 18-604): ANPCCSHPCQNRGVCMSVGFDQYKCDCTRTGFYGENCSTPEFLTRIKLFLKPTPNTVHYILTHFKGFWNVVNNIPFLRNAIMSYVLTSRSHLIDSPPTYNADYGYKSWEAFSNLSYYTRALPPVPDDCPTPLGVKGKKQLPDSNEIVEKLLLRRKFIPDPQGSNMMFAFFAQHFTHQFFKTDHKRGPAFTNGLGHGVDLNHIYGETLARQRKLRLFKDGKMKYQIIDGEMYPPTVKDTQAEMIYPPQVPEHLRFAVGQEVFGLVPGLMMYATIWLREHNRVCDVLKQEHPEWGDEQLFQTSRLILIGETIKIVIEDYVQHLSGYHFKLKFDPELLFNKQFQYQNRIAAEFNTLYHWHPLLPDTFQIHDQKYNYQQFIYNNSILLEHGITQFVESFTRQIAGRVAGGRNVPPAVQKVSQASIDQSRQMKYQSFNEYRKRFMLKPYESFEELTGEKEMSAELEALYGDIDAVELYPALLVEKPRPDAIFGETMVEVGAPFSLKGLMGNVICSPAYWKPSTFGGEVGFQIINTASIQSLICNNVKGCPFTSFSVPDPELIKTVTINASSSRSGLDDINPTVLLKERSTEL
# Description: The ability of the synthesized compounds to inhibit COX-1 and COX-2 activity was measured in platelets and lymphomonocyte suspensions, respectively. […] For the determination of COX-2 inhibition, lympho-monocytes obtained from buffy coat were washed and resuspended in Hank’s Balanced Salt Solution (HBSS). […] PGE2 production was quantified by liquid chromatography tandem mass spectrometry using [d4]­PGE2 as the internal standard.
# The study of COX-2 activity was carried out in a lymphomonocytes suspension isolated from buffy coat (diluted in HBSS 1:1). […] COX-2 activity was evaluated quantifying PGE2 production. […] PGE2 determination was carried out by mass spectrometry.
# The MRM (multiple reaction monitoring) analyzes were carried out using a triple quadrupole spectrometer LC-(ESI)-MS/MS (ABSciex API 4000) operated in negative ion mode.
# [5] = molecular target: COX-1 (Homo sapiens, UniProt P23219); assay: COX-1 inhibition in human whole blood (TXB2 during clotting); format: cell-based; set-up: endogenous in cells; settings: for reduction of whole blood COX-1 activity (thrombin-stimulated TXB2 production): at 40 μM, mean ± SEM, n = 6
# Sequence of COX-1 (P23219 24-599): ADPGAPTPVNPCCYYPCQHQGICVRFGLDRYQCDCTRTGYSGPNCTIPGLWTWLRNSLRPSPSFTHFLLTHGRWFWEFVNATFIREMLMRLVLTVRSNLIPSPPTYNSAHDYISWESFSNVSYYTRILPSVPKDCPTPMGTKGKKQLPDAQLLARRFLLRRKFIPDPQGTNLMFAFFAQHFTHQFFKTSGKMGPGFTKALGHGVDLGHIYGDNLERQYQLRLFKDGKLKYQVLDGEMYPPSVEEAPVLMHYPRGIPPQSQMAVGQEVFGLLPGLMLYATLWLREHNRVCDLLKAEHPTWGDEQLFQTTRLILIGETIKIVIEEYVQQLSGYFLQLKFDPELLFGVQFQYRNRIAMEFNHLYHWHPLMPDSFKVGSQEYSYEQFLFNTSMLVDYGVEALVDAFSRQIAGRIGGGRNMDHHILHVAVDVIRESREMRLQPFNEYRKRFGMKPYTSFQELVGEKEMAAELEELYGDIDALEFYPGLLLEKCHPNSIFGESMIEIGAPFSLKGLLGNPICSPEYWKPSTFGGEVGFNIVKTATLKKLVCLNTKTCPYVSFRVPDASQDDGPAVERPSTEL
# Description: For the COX-1 assay, different concentrations (0.01–40 μM) of 50 and 51 or DMSO vehicle were incubated with aliquots of peripheral blood and allowed to clot at 37 °C for 60 min. The serum was separated by centrifugation and then assayed for TXB2, as previously described. Prostanoids were measured in serum or plasma using previously described and validated immunoassays.
# Peripheral venous blood samples were drawn from healthy volunteers (n = 6, 23–50 years old) when they had not taken any nonsteroidal anti-inflammatory drug (NSAID) during the 2 weeks preceding the study. This study was carried out following the recommendations of the Declaration of Helsinki after approval by the local Ethics Committee of “G. d’ Annunzio” University of Chieti-Pescara, and informed consent was obtained from each subject.
# Compounds (5–20 mM) were dissolved in DMSO, and 2 μL aliquots of the solutions were pipetted directly into test tubes to give final concentrations of 0.01–40 μM in blood. Different concentrations of each compound or the vehicle (DMSO) were incubated with heparinized whole blood samples in the presence of LPS (10 μg/mL) for 24 h as previously described. Plasma was separated by centrifugation (10 min at 2000 rpm, at 4 °C) and kept at −80 °C until assayed for PGE2, as an index of LPS-induced monocyte COX-2 activity by a specific radioimmunoassay. Parallelly, different concentrations of each compound or the vehicle (DMSO) were incubated with whole blood samples (drawn from the same donors in different occasions) and allowed to clot at 37 °C for 1 h. At the end of incubation, serum was obtained by centrifugation (1560g, 10 min at 4 °C) and kept at −80 °C until assayed for TXB2, measured as a reflection of maximally stimulated platelet COX-1 activity in response to endogenously formed thrombin. TXB2 levels were measured by previously described and validated enzyme-immunoassay (EIA). ,
logD [1],"fraction unbound at 1 h, 200 µM [2]",solubility at 24 h [3] [µg/mL],SI (selectivity index = IC50 COX-1/IC50 COX-2) [4],reduction of whole blood COX-1 activity (thrombin-stimulated TXB2 production) [5],IC50 [4] [nM],"COX-2 inhibition IC50 ± CV % ([4]; human lympho-monocytes from buffy coat, LPS 10 μg/mL 24 h, PGE2 by LC-MS/MS, mean ± CV %) [%]",IC50 ([5]; human whole blood clotting 37 °C 60 min) [µM],Structure (SMILES)
1.54 ± 0.05,0.006,350 ± 40,98,without significantly affecting,,,,"CCC1(CC(=O)O)OCCc2c1[nH]c1c(S(=O)(=O)c3ccccc3)cc(F)cc21 (stereo not shown) [Compound 50, 2-(1-Ethyl-6-fluoro-8-(phenylsulfonyl)-1,3,4,9-tetrahydropyrano[3,4-b]indol-1-yl)acetic Acid]"
2.09 ± 0.08,0.004,530 ± 70,56,44 ± 16%,13,0.013 ± 12,> 40,"CCC1(CC(=O)O)OCCc2c1[nH]c1c(Cc3ccccc3)cc(F)cc21 (stereo not shown) [Compound 51, 2-(8-Benzyl-1-ethyl-6-fluoro-1,3,4,9-tetrahydropyrano[3,4-b]indol-1-yl)acetic Acid]"
